Active and inactive are the calls of the source.

The nature of assay [1]: HEK-293T cell viability reduction – luminescence, B-cell screen hits, cytotoxicity control for BCR NF-kB inhibitor project, dose response (AID 489021).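 Further: HEK-293T cells carrying an NF-kB luciferase reporter; cells exposed to compound for about 14 hours before viability readout.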 In kind it is functional, cell-based.
The target in assay [2] is Glyceraldehyde-3-phosphate dehydrogenase (Homo sapiens, UniProt P04406).
Assay [3] can be described thus: Luminescence Cell-Based Dose Response HTS to Identify Inhibitors of 5'UTR Stem-Loop Driven Prion Protein mRNA Translation in H4 Neuroglioblastoma Cells. [Related pubchem assays: 1827 (Project Summary), 1813 (Primary HTS)]. In kind it is functional.
The nature of assay [4]: alpha-synuclein stem-loop translation blockers – luminescence, H4 neuroglioblastoma cells, dose confirmation, confirmation (AID 2454).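 Further: H4 neuroglioblastoma cells carrying an alpha-synuclein 5'UTR luciferase reporter; potency for inhibition of the luciferase signal.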 In kind it is functional, cell-based.
Assay [5] in a line: luciferase reporter signal reduction – luminescence, H4-C neuroglioblastoma cells, dose response (AID 2458).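 Further: H4 neuroglioblastoma cells stably carrying a luciferase reporter gene fusion.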 In kind it is functional, cell-based. (In general: Reporter assays use an easily measured gene product as a stand-in for the process of interest.)
A short description of assay [6]: alpha-synuclein stem-loop luciferase translation blockers – H4 neuroglioma cells, luminescence, confirmation (AID 1988). In kind it is functional, cell-based.
Assay [7] in a line: luciferase reporter signal suppression in cells – H4 neuroglioma cells, luminescence, dose response (AID 1990). In kind it is functional, cell-based.
The nature of assay [8]: cells. In kind it is functional, cell-based.
The target in another assay is T1, Bcl-2-like protein 10 (Homo sapiens, UniProt Q9HD36).
T1 sequence (Q9HD36 whole entry): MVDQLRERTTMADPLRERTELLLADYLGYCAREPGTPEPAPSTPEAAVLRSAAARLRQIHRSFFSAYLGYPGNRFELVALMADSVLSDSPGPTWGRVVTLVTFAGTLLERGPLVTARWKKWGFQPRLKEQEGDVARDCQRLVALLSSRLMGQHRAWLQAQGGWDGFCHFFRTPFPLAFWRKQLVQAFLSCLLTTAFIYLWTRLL
The assay is described as follows: Bcl-B/TR3 peptide binding disruption – biochemical, fluorescence polarization, FITC-TR3 peptide, selectivity assay for Bfl-1 inhibitor project, primary screen (AID 748). (Fluorescence polarisation rises when a labelled molecule tumbles more slowly, as on binding a larger partner.)

The nature of assay [9]: THP-1 cell cytotoxicity, dose response, cytotoxicity control for non-replicating M. tuberculosis project (AID 489025). In kind it is functional.
A short description of assay [10]: cells. In kind it is functional.
Assay [11] in a line: HepG2 cell cytotoxicity, dose response, cytotoxicity control for non-replicating M. tuberculosis project (AID 489018). In kind it is functional. Conditions: Mycobacterium tuberculosis.
A short description of assay [12]: Vero E6 cell cytotoxicity, dose response, cytotoxicity control for non-replicating M. tuberculosis project, secondary assay (AID 492998). In kind it is functional, VeroE6. Conditions: Vero C1008.
Assay [13] concerns the target T2, Microphthalmia-associated transcription factor (Homo sapiens, UniProt O75030).
T2 sequence (O75030 whole entry): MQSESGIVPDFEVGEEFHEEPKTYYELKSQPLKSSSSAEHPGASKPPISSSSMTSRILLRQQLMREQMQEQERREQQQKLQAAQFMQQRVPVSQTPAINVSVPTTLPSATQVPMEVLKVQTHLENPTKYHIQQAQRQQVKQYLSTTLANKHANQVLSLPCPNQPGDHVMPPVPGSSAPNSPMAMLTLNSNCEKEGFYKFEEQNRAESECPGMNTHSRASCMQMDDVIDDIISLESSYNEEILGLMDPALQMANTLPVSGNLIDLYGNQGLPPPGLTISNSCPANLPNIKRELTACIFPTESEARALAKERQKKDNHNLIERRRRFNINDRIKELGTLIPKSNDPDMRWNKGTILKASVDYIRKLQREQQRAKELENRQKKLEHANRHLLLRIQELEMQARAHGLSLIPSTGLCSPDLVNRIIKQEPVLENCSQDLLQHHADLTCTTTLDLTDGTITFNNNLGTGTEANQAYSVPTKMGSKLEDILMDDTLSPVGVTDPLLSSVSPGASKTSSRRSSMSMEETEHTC
The assay is described as follows: reducers of TRPM1 reporter luminescence, concentration series – cell-based, SK-MEL-5, cherry-picked, set 3, MITF inhibitor project, dose response (AID 493073).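 Further: SK-MEL-5 melanoma cells with luciferase driven by the MITF target TRPM1 promoter.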 In kind it is functional.

The target in assay [14] is Voltage-dependent T-type calcium channel subunit alpha-1H (Homo sapiens, UniProt O95180). In kind it is functional.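 Further: channel activity triggered by adding a high calcium stimulation buffer.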
The subject of a further assay is HEK293. The assay is described as follows: Fluorescence-based counterscreen for potentiators or agonists of NPY-Y2: cell-based high-throughput dose response assay to identify inhibitors of cyclic nucleotide gated ion channel (CNGC) activity. In this assay, the parental HEK293 cell line transfected with a cyclic-nucleotide gated ion channel (CNGC)-based cAMP sensor is used to measure inhibition of isoproterenol-induced CNGC activity by test compound. In kind it is functional. As to conditions: Homo sapiens. Background: A counterscreen serves to expose hits that act by an unwanted route or on another target.

Assay [15] concerns the target T3, Neuropeptide Y receptor type 2 (Homo sapiens, UniProt P49146).
T3 sequence (P49146 whole entry): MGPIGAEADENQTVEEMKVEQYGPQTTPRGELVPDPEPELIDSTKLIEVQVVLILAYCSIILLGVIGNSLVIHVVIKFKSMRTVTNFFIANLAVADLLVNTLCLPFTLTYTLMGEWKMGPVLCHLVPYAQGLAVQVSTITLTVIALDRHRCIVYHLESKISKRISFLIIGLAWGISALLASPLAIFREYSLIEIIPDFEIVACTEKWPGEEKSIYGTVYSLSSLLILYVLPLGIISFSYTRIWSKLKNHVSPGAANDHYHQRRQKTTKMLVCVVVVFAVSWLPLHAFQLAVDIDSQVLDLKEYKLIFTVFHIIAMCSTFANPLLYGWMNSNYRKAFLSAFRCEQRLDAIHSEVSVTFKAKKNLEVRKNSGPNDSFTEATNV
The assay is described as follows: Fluorescence-based cell-based high-throughput dose response assay for agonists of NPY-Y2. [Related pubchem assays: 1703 (Screening assay (CNGC inhibitors).), 1359 (Screening assay (NPY-Y2 potentiators or agonists).), 1304 (Screening assay (NPY-Y1 potentiators or agonists).), 1710 (Screening assay (NPY-Y2 agonists).), 1791 (Summary AID.)]. In kind it is functional.

For assay [16], the target named is T4, Neuropeptide Y receptor type 1 (Homo sapiens, UniProt P25929).
T4 sequence (P25929 whole entry): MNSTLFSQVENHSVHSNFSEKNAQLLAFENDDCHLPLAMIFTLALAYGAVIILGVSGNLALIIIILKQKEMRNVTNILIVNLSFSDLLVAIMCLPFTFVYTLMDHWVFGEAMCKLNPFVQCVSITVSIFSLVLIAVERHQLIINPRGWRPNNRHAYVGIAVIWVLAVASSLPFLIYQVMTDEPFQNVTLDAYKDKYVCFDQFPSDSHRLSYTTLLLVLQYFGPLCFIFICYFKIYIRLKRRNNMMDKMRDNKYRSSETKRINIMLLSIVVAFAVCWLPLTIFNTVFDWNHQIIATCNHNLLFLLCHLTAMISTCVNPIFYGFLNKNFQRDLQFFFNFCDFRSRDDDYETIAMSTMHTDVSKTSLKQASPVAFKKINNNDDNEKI
The assay can be described thus: Fluorescence-based counterscreen for agonists of NPY-Y2: cell-based high-throughput dose response assay for agonists of NPY-Y1. In kind it is functional.

Another assay has as its target NS3 (Hepatitis C virus, UniProt A3EZJ3). The assay is described as follows: PubChem AID 2173. Further details: species or system Hepacivirus hominis.

Sequence of NS3 (A3EZJ3 whole entry): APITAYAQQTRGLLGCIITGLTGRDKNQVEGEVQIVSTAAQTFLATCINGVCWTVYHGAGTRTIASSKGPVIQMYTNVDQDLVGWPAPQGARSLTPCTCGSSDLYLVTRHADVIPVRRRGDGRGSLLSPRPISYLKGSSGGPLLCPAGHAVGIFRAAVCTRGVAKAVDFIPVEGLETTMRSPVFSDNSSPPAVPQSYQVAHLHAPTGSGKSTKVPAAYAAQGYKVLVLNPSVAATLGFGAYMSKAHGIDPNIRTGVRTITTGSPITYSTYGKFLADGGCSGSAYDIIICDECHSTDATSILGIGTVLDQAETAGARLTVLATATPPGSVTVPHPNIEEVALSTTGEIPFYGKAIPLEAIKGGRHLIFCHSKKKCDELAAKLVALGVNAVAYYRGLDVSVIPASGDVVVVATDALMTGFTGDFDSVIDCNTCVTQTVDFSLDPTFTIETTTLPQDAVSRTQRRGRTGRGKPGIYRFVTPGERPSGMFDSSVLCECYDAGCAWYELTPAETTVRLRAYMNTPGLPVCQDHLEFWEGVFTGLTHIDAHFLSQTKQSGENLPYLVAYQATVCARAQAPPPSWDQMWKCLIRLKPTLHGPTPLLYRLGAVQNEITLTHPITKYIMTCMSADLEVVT
Sequence of Glyceraldehyde-3-phosphate dehydrogenase (P04406 whole entry): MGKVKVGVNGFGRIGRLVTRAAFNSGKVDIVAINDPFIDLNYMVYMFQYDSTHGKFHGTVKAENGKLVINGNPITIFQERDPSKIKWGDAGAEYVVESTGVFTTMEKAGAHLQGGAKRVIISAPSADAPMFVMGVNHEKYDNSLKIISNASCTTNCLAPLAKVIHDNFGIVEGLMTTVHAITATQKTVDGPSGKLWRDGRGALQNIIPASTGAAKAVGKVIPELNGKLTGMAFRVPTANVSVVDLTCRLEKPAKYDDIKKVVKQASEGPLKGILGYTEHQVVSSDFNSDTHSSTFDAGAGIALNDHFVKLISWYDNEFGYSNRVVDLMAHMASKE
Sequence of Voltage-dependent T-type calcium channel subunit alpha-1H (O95180 whole entry): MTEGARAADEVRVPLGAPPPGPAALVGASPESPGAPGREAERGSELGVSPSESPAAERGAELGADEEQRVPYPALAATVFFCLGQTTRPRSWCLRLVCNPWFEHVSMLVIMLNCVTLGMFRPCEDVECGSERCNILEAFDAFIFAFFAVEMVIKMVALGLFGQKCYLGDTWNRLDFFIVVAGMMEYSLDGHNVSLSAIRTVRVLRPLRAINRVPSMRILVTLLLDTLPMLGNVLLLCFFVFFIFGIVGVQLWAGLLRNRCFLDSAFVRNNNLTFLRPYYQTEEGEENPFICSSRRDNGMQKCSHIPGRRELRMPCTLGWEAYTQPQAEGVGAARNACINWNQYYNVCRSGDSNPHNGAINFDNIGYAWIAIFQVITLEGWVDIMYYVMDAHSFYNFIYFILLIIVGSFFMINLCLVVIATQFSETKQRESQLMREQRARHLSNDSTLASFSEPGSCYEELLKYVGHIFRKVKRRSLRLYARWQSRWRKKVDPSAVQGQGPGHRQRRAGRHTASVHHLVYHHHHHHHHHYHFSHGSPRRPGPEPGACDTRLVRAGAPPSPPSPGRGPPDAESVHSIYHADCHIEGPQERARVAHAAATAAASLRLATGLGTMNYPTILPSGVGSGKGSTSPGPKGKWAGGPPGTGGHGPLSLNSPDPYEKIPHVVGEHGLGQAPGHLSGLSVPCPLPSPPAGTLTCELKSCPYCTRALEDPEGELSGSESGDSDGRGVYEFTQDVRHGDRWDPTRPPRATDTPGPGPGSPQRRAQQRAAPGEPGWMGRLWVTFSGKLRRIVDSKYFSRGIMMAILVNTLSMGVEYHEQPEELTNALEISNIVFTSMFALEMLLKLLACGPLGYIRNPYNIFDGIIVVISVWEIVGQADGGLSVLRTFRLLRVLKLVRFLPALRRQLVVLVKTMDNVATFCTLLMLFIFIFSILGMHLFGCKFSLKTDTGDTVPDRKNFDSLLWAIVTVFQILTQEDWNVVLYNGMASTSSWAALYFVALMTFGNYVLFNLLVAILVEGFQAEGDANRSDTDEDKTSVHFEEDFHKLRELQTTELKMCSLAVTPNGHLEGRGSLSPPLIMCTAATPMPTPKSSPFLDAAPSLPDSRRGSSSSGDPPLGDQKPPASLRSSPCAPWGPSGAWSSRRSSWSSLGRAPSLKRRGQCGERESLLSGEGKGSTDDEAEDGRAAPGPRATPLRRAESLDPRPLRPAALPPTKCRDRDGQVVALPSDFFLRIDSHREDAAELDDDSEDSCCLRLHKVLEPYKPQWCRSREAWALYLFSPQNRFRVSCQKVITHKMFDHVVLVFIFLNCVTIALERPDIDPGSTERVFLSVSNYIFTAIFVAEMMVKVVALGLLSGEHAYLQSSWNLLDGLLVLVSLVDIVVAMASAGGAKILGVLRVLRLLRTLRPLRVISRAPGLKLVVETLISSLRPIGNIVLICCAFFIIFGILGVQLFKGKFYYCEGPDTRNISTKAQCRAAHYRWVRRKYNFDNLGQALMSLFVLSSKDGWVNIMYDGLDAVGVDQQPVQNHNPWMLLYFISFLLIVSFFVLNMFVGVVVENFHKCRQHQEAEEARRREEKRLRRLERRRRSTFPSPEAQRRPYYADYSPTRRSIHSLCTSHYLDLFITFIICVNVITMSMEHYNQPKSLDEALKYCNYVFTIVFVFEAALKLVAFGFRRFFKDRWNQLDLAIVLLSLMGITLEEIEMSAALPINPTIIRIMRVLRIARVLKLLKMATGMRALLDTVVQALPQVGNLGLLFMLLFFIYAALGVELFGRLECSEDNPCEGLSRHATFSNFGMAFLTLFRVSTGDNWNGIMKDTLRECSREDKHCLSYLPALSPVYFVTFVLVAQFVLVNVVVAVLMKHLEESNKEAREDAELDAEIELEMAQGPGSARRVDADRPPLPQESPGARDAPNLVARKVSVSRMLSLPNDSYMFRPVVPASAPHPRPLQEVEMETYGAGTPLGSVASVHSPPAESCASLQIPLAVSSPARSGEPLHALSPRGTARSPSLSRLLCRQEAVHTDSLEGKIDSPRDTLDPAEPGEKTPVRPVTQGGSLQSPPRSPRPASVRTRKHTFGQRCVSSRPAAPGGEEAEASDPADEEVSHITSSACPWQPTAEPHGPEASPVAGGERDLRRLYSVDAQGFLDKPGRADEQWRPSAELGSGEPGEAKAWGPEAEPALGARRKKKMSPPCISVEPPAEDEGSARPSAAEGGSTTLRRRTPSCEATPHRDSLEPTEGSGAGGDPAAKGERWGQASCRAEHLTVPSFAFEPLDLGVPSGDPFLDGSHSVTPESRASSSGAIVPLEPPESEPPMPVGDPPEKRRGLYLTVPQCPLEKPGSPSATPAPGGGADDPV

For `COc1cccc(-c2noc(CCC(=O)NCCc3ccccc3)n2)c1`, the IC50 – broadly, the concentration at which inhibition is half-maximal – in assay [1] was > 80 µM (inactive).

Turning to `CCC(C(=O)Nc1ccc(O)c(C(=O)O)c1)c1ccccc1` (stereo not drawn), in assay [2], the 50% inhibitory concentration (IC50) is > 100 µM (not active).

Turning to `Cn1c2ccc(Br)cc2c2nnc(SCC(=O)O)nc21`, the EC50 (commonly the concentration that produces a half-maximal response) in assay [3] is < 0.1 µM (active); in assay [4], 9.55 µM (active); in [5] it was > 12 µM (not active); in assay [6] it was 29.3 µM (active); in [7] it was > 60 µM (not active); in “cells [8]”, > 12 µM (not active).

As for `O=C(COC(=O)Cc1ccccc1)Nc1ncc(Cl)cc1Cl`, the IC50 at Bcl-2-like protein 10 is 91.5 µM (inactive).

For the molecule `CN1C/C(=C/c2cccnc2)C(=O)/C(=C/c2cccnc2)C1`, the CC50 – broadly, the concentration at which the toxic effect on the cells reaches its halfway point – was 6.26 µM (active) in assay [9], 8.54 µM (active) in assay [11] and > 20 µM (active) in assay [12]. Also, in the assay “cells [10]”, the half-inhibitory concentration (IC50) is 16.8 µM (active). Besides, the AC50 (in general, the midpoint of the concentration-response curve, whichever way the signal moves) in [13] was 5.31 µM (active).

For `CCC1CCCCN1S(=O)(=O)c1ccc(C(=O)Nc2nnc(-c3cccs3)o2)cc1` (stereo not drawn), the CC50 in [9] was 3.49 µM (active); in [11] it was 9.09 µM (active); in assay [12], 2.43 µM (active). The IC50 in “cells [10]” is 6.49 µM (active). For the same molecule, in assay [14], the EC50 is 1.44 µM (active).

As for `O=C(Nc1ccccc1Cl)c1c(F)c(F)c(F)c(F)c1F`, the EC50 (with HEK293; in assay [15]; in assay [16]) was > 35.4 µM (not active) throughout.

`O=C1/C(=C/C=C/C=C/Nc2ccccc2)SC(=S)N1Cc1ccccc1`: the half-maximal inhibitory concentration (IC50) at NS3 is 17.3 µM (not active).
